Assay results reported in patent publication EP4722213A1, “NITROGEN-CONTAINING FUNCTIONAL GROUP-SUBSTITUTED PYRIDAZINOPYRIDONE DERIVATIVE AND USE THEREOF” (Sichuan Huiyu Pharmaceutical Co., Ltd., priority 2023, dated 2024).
pIC50: −log10 of the molar value. Structures can show the parent of a compound that is named as a salt.

Biological target: T1, SOS1 (Homo sapiens, UniProt Q07889)
T1 sequence (Q07889 1-1333): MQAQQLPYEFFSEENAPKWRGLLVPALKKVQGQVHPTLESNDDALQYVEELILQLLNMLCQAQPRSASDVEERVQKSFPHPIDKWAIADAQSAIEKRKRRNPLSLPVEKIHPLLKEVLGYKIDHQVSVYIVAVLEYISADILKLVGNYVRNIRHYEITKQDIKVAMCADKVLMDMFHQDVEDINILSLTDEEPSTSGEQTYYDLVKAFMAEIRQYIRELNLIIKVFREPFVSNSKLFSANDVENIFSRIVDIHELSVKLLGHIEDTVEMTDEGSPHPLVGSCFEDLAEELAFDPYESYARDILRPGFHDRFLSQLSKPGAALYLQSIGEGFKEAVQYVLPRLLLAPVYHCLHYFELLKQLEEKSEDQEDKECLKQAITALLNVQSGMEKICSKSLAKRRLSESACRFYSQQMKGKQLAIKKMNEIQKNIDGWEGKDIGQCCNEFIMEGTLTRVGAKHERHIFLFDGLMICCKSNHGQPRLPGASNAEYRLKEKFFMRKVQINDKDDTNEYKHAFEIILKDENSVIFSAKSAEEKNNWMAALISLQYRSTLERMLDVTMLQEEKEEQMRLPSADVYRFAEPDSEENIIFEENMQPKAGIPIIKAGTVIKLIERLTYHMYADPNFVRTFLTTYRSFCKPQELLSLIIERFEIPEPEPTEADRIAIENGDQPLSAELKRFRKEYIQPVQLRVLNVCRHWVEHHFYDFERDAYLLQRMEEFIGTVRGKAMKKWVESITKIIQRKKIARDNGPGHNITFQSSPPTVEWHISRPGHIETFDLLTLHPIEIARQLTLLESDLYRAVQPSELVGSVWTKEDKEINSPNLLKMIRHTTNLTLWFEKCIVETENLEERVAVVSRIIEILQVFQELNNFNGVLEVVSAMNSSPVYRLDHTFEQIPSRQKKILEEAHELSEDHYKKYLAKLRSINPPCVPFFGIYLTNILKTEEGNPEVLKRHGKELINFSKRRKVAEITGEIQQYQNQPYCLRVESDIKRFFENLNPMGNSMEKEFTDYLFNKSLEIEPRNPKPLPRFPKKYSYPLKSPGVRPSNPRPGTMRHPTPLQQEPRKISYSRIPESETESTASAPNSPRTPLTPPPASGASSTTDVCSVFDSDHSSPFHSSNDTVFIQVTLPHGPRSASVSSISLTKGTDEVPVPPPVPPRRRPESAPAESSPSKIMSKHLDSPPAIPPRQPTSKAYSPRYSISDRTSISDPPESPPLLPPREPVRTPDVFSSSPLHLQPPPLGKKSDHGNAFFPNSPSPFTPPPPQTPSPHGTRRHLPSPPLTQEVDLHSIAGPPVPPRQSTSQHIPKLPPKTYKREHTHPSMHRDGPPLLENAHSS
Experiment: biochemical

Row | SMILES | pIC50
1 | C[C@@H](Nc1nnc(N2CC(CO)C2)c2cc(=O)n(C3(C)CC3)cc12)c1cccc(C(F)F)c1F [Example 131, (R)-4-((1-(3-(difluoromethyl)-2-fluorophenyl)ethyl)amino)-1-(3-(hydroxymethyl)azetidin-1-yl)-6-(1-methylcyclopropyl) pyrido[3,4-d]pyridazin-7(6H)-one] | 8.34
2 | Cc1c(C#N)cccc1[C@@H](C)Nc1nnc(N2CCN(C(C)C)CC2)c2cc(=O)n(C3CCN(C)CC3)cc12 [Example 132, (R)-3-(1-((1-(4-isopropylpiperazin-1-yl)-6-(1-methylpiperidin-4-yl)-7-oxo-6,7-dihydropyrido[3,4-d]pyridazin-4-yl)amino)ethyl)-2-methylbenzonitrile] | 7.78
3 | C[C@@H](Nc1nnc(NC2CN3CCC2CC3)c2cc(=O)n(C3(C)CC3)cc12)c1cccc(C(F)F)c1F (stereo partly drawn) [Example 133, 4-(((R)-1-(3-(difluoromethyl)-2-fluorophenyl)ethyl)amino)-6-(1-methylcyclopropyl)-1-(quinuclidin-3-ylamino)pyrido[3,4-d]pyridazin-7(6H)-one] | 8.19
4 | C[C@@H](Nc1nnc(NCC(F)F)c2cc(=O)n(C3(C)CC3)cc12)c1cccc(C(F)F)c1F [Example 134, (R)-1-((2,2-difluoroethyl)amino)-4-((1-(3-(difluoromethyl)-2-fluorophenyl)ethyl)amino)-6-(1-methylcyclopropyl) pyrido[3,4-d]pyridazin-7(6H)-one] | 8.02
5 | Cc1c(C#N)cccc1[C@@H](C)Nc1nnc(N2CCN(C)CC2)c2cc(=O)n(C3CCN(C)CC3)cc12 [Example 135, (R)-2-methyl-3-(1-((1-(4-methylpiperazin-1-yl)-6-(1-methylpiperidin-4-yl)-7-oxo-6,7-dihydropyrido[3,4-d]pyridazin-4-yl)amino)ethyl)benz onitrile formate] | 7.85
6 | C[C@@H](Nc1nnc(N2CCN(C)CC2)c2cc(=O)n(N3CC4CCCC4C3)cc12)c1cccc(C(F)F)c1F (stereo partly drawn) [Example 136, 4-(((R)-1-(3-(difluoromethyl)-2-fluorophenyl)ethyl)amino)-6-(hexahydrocyclopenta[c]pyrrol-2(1H)-yl)-1-(4-methylpiperazin-1-yl)pyrido[3,4-d]pyridazin-7(6H)-one formate] | 8.21
7 | C[C@@H](Nc1nnc(N2CC[C@@H](O)C2)c2cc(=O)n(C3(C)CC3)cc12)c1cccc(C(F)F)c1F [Example 137, 4-(((R)-1-(3-(difluoromethyl)-2-fluorophenyl)ethyl)amino)-1-((R)-3-hydroxypyrrolidin-1-yl)-6-(1-methylcyclopropyl) pyrido[3,4-d]pyridazin-7(6H)-one formate] | 8.32
8 | C[C@@H](Nc1nnc(N2CCN(C)CC2)c2cc(=O)n(C)cc12)c1cccc(C(F)F)c1F [Example 138, (R)-4-((1-(3-(difluoromethyl)-2-fluorophenyl)ethyl)amino)-6-methyl-1-(4-methylpiperazin-1-yl)pyrido[3,4-d]pyridazin-7(6H)-one formate] | 7.97
9 | C[C@@H](Nc1nnc(N2CCC[C@@H]2CO)c2cc(=O)n(C3(C)CC3)cc12)c1cccc(C(F)F)c1F [Example 139, 4-(((R)-1-(3-(difluoromethyl)-2-fluorophenyl)ethyl)amino)-1-((R)-2-(hydroxymethyl)pyrrolidin-1-yl)-6-(1-methylcyclopropyl) pyrido[3,4-d]pyridazin-7(6H)-one] | 8.21
10 | C[C@@H](Nc1nnc(N2CCN(C3CCCC3)CC2)c2cc(=O)n(N3CC4CCCC4C3)cc12)c1cccc(C(F)F)c1F (stereo partly drawn) [Example 140, 4-(((R)-1-(3-(difluoromethyl)-2-fluorophenyl)ethyl)amino)-6-(hexahydrocyclopenta[c]pyrrol-2(1H)-yl)-1-(4-cyclopentylpiperazin-1-yl)-pyrido[3,4-d]pyridazin-7(6H)-one] | 8.07
11 | Cc1cc(N)cc([C@@H](C)Nc2nnc(N3CCN(C)CC3)c3cc(=O)n(C4CC4)cc23)c1F [Example 141, (R)-4-((1-(5-amino-2-fluoro-3-methylphenyl)ethyl)amino)-6-cyclopropyl-1-(4-methylpiperazin-1-yl)pyrido[3,4-d]pyridazin-7(6H)-one] | 8.11
